Measured values published in patent US6716392B1, “Preservation of liquid biological samples” (The United States of America as represented by the United …, priority 1995, dated 2004).
Read-outs that look alike come from different tables or passages of the source. Each block holds one compound with its values, some of them ahead of it.

How the values were obtained:
[1] = Stability of spiked APAP and AP in saliva (HPLC); assay type: physicochemical
From the text: Non-invasive estimates of physiological and pharmacokinetic alterations may be obtained by measuring the concentrations of certain compounds and their metabolites in liquid biological samples (e.g., saliva). For example, gastrointestinal activity and the absorption, bioavailability and elimination of acetaininophen (“APAP”) may be assessed by measuring APAP concentrations in liquid biological samples following oral administration of APAP. In addition, hepatic metabolism may be measured indirectly from the clearance of orally administered antipyrine (“AP”) from liquid biological samples. The accuracy of such non-invasive estimates depends, in part, upon the stability of the reference compound or metabolite in the liquid biological sample. Therefore, the effectiveness of a particular preservative may be evaluated by determining the degradation time course for a known quantity of a specific reference compound.
The effectiveness of the preservative of the present invention was evaluated by measuring the stability of APAP and AP in saliva samples stored at −20° C. as compared to saliva samples stored at room temperature and containing sodium benzoate and citric acid in an amount of 0.25% and 0.05% of the sample (weight/volume), respectively (“P1”). Saliva samples were collected from forty subjects, pooled, aliquoted and spiked with APAP (5 or 25 μg/ml) or AP (5 or 50 μg/ml). Duplicate samples were analyzed by high performance liquid chromatography on days 1, 14, 28, 60, 120, 180, 240 and 360 (see Tables 1-4 below).

[2] = assay type: physicochemical; details: for storage time over which concentrations in saliva were comparable / preserved: room temperature in the presence of P1 versus −20° C.; for SALIVA STABILITY OF MELATONIN: human
Protocol: The effectiveness of the preservative of the present invention in maintaining the stability of hormones in liquid biological samples was evaluated by measuring the maintenance of base-line physiological levels of melatonin and cortisol in saliva. Aliquots (non-spiked) of the pooled saliva samples containing base-line physiological levels of melatonin and cortisol were stored −20° C. or at room temperature and containing sodium benzoate and citric acid in an amount of 0.25% and 0.05% of the sample (weight/volume), respectively (“P1”). Duplicate samples were analyzed by radioimmunoassay on days 1, 14, 28, 60, 120, 180, 240 and 360 (see Tables 5 and 6 below).

Saliva Stability (APAP concentration) ([1]; 5 μg/ml APAP, No Preservative, −20° C., Day 01): 5.83 ± 0.08 µg/mL
Saliva Stability (APAP concentration) ([1]; 5 μg/ml APAP, No Preservative, −20° C., Day 14): 6.59 ± 0.61 µg/mL
Saliva Stability (APAP concentration) ([1]; 5 μg/ml APAP, No Preservative, −20° C., Day 28): 5.81 ± 0.08 µg/mL
Saliva Stability (APAP concentration) ([1]; 5 μg/ml APAP, No Preservative, −20° C., Day 60): 5.82 ± 0.20 µg/mL
Saliva Stability (APAP concentration) ([1]; 5 μg/ml APAP, No Preservative, −20° C., Day 120): 5.54 ± 0.33 µg/mL
Saliva Stability (APAP concentration) ([1]; 5 μg/ml APAP, No Preservative, −20° C., Day 180): 3.77 ± 0.03 µg/mL
Saliva Stability (APAP concentration) ([1]; 5 μg/ml APAP, No Preservative, −20° C., Day 240): 4.17 ± 0.16 µg/mL
Saliva Stability (APAP concentration) ([1]; 5 μg/ml APAP, No Preservative, −20° C., Day 360): 5.14 ± 0.09 µg/mL
Saliva Stability (APAP concentration) ([1]; 5 μg/ml APAP, P1, RT, Day 01): 5.49 ± 0.09 µg/mL
Saliva Stability (APAP concentration) ([1]; 5 μg/ml APAP, P1, RT, Day 14): 5.38 ± 0.14 µg/mL
Saliva Stability (APAP concentration) ([1]; 5 μg/ml APAP, P1, RT, Day 28): 4.83 ± 1.79 µg/mL
Saliva Stability (APAP concentration) ([1]; 5 μg/ml APAP, P1, RT, Day 60): 6.89 ± 0.94 µg/mL
Saliva Stability (APAP concentration) ([1]; 5 μg/ml APAP, P1, RT, Day 120): 5.40 ± 0.20 µg/mL
Saliva Stability (APAP concentration) ([1]; 5 μg/ml APAP, P1, RT, Day 180): 4.37 ± 0.08 µg/mL
Saliva Stability (APAP concentration) ([1]; 5 μg/ml APAP, P1, RT, Day 240): 4.29 ± 0.25 µg/mL
Saliva Stability (APAP concentration) ([1]; 5 μg/ml APAP, P1, RT, Day 360): 5.31 ± 0.43 µg/mL
Saliva Stability (APAP concentration) ([1]; 25 μg/ml APAP, No Preservative, −20° C., Day 01): 24.88 ± 0.22 µg/mL
Saliva Stability (APAP concentration) ([1]; 25 μg/ml APAP, No Preservative, −20° C., Day 14): 25.60 ± 0.41 µg/mL
Saliva Stability (APAP concentration) ([1]; 25 μg/ml APAP, No Preservative, −20° C., Day 28): 25.25 ± 0.48 µg/mL
Saliva Stability (APAP concentration) ([1]; 25 μg/ml APAP, No Preservative, −20° C., Day 60): 25.02 ± 0.4 µg/mL
Saliva Stability (APAP concentration) ([1]; 25 μg/ml APAP, No Preservative, −20° C., Day 120): 25.45 ± 0.49 µg/mL
Saliva Stability (APAP concentration) ([1]; 25 μg/ml APAP, No Preservative, −20° C., Day 180): 16.71 ± 0.50 µg/mL
Saliva Stability (APAP concentration) ([1]; 25 μg/ml APAP, No Preservative, −20° C., Day 240): 18.20 ± 0.14 µg/mL
Saliva Stability (APAP concentration) ([1]; 25 μg/ml APAP, No Preservative, −20° C., Day 360): 24.37 ± 0.36 µg/mL
Saliva Stability (APAP concentration) ([1]; 25 μg/ml APAP, P1, RT, Day 01): 24.94 ± 0.56 µg/mL
Saliva Stability (APAP concentration) ([1]; 25 μg/ml APAP, P1, RT, Day 14): 24.63 ± 0.12 µg/mL
Saliva Stability (APAP concentration) ([1]; 25 μg/ml APAP, P1, RT, Day 28): 27.3 ± 1.54 µg/mL
Saliva Stability (APAP concentration) ([1]; 25 μg/ml APAP, P1, RT, Day 60): 29.88 ± 3.58 µg/mL
Saliva Stability (APAP concentration) ([1]; 25 μg/ml APAP, P1, RT, Day 120): 24.20 ± 0.47 µg/mL
Saliva Stability (APAP concentration) ([1]; 25 μg/ml APAP, P1, RT, Day 180): 17.55 ± 0.46 µg/mL
Saliva Stability (APAP concentration) ([1]; 25 μg/ml APAP, P1, RT, Day 240): 17.21 ± 0.36 µg/mL
Saliva Stability (APAP concentration) ([1]; 25 μg/ml APAP, P1, RT, Day 360): 25.70 ± 0.55 µg/mL
Compound: CC(=O)Nc1ccc(O)cc1 [APAP, acetaminophen]

storage time over which concentrations in saliva were comparable / preserved [2]: 180 days
Compound: C[C@]12CCC(=O)C=C1CC[C@@H]1[C@@H]2[C@@H](O)C[C@@]2(C)[C@H]1CC[C@]2(O)C(=O)CO [Cortisol, cortisol]

SALIVA STABILITY OF MELATONIN ([2]; 28 day): 31.71 ± 4.4 pg/mL
SALIVA STABILITY OF MELATONIN ([2]; 28 days): 29.43 ± 5.9 pg/mL
storage time over which concentrations in saliva were comparable / preserved [2]: 180 days
Compound: COc1ccc2[nH]cc(CCNC(C)=O)c2c1 [Melatonin, melatonin]
